Usually inhibition stands for how much of the control response was suppressed.

The text below walks through data of ChEMBL document CHEMBL5303766, “Data for DCP probe FHT-2344” (2022).

Assay [1] addresses T1, Dual specificity tyrosine-phosphorylation-regulated kinase 2 (Homo sapiens) (UniProt Q92630).
T1 sequence (whole entry): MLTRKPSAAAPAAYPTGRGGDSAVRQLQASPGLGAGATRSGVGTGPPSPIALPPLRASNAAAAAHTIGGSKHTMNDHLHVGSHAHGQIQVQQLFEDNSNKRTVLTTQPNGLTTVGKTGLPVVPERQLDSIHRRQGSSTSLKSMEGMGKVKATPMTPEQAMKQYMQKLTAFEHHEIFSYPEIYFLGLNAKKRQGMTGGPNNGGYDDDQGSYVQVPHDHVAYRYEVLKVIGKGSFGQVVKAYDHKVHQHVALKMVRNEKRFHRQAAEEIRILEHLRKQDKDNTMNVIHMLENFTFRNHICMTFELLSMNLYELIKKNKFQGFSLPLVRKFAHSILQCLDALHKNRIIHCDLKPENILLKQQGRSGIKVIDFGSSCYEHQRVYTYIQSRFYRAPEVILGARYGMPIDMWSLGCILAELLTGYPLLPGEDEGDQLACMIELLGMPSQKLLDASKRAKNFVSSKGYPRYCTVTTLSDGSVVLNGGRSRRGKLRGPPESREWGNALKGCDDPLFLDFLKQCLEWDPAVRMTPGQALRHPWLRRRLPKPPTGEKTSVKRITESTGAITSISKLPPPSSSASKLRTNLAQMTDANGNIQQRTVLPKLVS
Nature of the assay: DYRK2 SGC Tm panel (DSF). The settings on record: for ΔTm: Compound concentration 10.0 uM.

Assay [2] has as its target T2, Myotonin-protein kinase (Homo sapiens) (UniProt Q09013).
T2 sequence (whole entry): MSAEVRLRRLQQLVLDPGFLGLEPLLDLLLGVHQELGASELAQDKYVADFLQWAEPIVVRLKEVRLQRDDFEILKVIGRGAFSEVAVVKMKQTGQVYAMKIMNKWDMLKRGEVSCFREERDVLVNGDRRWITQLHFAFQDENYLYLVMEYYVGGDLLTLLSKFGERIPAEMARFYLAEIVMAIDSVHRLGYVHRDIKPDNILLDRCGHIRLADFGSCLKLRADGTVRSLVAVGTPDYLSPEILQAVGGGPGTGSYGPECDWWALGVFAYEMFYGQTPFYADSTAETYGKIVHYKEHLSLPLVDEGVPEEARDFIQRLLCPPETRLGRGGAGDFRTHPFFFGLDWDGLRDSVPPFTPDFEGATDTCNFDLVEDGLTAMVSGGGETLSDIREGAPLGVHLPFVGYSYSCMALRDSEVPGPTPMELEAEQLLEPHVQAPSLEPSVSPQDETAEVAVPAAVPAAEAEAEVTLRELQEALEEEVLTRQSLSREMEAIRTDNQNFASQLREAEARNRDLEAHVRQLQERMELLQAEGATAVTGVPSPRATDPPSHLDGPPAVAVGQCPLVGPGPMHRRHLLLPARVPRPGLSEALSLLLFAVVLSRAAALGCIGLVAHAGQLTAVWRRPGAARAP
As to the kind of experiment: DMPK SGC Tm panel (DSF). The settings on record: for ΔTm: Compound concentration 10.0 uM.

Assay [3] has as its target SRSF protein kinase 1 (Homo sapiens) (UniProt Q96SB4). As to the kind of experiment: SRPK1 SGC Tm panel (DSF). The settings on record: for ΔTm: Compound concentration 10.0 uM.
For assay [4], the target named is T3, Serine/threonine-protein kinase tousled-like 1 (Homo sapiens) (UniProt Q9UKI8).
T3 sequence (whole entry): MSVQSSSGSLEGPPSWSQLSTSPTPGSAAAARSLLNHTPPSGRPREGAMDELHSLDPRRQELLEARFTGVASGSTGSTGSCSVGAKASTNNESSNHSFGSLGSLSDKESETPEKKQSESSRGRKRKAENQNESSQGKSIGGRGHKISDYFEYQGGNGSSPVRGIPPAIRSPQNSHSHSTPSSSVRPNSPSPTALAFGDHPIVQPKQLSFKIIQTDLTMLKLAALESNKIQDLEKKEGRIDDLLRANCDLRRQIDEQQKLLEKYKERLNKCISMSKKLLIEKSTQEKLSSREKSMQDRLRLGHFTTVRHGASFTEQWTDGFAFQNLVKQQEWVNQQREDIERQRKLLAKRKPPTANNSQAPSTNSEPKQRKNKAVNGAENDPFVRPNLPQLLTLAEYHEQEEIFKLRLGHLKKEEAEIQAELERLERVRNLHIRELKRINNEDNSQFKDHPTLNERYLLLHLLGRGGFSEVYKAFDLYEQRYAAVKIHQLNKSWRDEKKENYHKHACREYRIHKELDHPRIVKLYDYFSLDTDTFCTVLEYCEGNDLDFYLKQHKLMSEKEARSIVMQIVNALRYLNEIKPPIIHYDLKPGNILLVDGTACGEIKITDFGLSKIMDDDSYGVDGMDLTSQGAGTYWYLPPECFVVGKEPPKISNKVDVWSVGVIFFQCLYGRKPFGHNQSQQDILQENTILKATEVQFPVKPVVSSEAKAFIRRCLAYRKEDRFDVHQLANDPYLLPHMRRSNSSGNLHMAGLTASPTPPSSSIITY
As to the kind of experiment: TLK1 SGC Tm panel (DSF). The settings on record: for ΔTm: Compound concentration 10.0 uM.

Assay [5] deals with 5-hydroxytryptamine receptor 1B (Homo sapiens) (UniProt P28222). The settings on record: Compound concentration 10.0 uM.
Assay [6] concerns the target 5-hydroxytryptamine receptor 6 (Homo sapiens) (UniProt P50406). The settings on record: Compound concentration 10.0 uM.
The target of assay [7] is Histamine H1 receptor (Homo sapiens) (UniProt P35367). The settings on record: Compound concentration 10.0 uM.
Histamine H1 receptor (Homo sapiens), sequence (P35367 whole entry): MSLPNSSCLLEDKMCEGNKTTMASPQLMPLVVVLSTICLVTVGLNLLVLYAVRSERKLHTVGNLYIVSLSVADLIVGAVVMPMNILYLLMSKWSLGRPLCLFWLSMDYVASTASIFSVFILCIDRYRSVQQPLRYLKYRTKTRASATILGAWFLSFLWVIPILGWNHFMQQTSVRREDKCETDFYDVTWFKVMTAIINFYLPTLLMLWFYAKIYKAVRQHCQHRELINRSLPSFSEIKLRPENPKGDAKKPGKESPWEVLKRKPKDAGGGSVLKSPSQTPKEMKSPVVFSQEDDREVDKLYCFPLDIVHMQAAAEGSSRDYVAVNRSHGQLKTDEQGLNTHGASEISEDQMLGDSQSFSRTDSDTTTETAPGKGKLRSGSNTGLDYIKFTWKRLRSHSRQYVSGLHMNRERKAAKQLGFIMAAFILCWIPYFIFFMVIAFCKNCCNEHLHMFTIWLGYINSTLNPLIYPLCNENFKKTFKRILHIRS

SRSF protein kinase 1 (Homo sapiens), sequence (Q96SB4 whole entry): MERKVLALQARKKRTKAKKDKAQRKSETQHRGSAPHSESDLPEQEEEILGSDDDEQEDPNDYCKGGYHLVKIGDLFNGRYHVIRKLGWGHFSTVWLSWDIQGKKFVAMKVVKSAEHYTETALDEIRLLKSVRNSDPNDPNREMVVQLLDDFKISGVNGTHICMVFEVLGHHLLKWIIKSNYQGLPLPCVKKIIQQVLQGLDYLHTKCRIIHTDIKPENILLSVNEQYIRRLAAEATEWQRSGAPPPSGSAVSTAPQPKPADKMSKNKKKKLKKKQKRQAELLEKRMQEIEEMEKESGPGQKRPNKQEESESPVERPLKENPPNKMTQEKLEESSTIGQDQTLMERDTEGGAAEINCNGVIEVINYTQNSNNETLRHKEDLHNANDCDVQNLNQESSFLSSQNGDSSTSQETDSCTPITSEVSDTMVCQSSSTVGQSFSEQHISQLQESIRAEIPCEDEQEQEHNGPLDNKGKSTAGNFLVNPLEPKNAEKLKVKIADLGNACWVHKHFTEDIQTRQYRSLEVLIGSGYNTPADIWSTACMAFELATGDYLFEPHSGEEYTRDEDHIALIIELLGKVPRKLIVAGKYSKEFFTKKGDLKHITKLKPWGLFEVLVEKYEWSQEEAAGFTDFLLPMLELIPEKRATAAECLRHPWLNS
5-hydroxytryptamine receptor 6 (Homo sapiens), sequence (P50406 whole entry): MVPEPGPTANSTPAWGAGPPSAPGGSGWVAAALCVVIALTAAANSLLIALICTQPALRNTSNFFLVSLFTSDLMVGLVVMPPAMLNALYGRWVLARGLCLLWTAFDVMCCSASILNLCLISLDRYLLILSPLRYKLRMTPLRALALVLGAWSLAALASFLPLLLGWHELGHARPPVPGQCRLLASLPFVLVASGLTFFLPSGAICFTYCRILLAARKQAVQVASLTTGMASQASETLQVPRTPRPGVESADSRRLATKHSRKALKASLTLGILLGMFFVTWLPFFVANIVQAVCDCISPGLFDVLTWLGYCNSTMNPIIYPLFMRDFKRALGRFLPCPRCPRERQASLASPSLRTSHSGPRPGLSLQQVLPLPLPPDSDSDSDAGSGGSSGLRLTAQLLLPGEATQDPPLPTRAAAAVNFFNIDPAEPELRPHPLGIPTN
5-hydroxytryptamine receptor 1B (Homo sapiens), sequence (P28222 whole entry): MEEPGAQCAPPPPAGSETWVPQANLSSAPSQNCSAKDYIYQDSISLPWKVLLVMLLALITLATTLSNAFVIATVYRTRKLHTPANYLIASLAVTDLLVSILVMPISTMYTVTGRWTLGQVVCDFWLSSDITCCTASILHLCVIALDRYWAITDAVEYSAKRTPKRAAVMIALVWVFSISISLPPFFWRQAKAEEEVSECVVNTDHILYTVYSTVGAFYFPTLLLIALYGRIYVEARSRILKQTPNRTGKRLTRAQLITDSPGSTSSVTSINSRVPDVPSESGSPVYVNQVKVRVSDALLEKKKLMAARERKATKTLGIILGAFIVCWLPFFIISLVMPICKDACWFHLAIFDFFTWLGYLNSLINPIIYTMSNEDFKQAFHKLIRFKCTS

`C[C@H](NC(=O)c1cn(C2(C#N)CC2)cn1)C(=O)Nc1nc(-c2cccc(-c3ccn(C)n3)c2)cs1`: the delta Tm Staurosporine positive control in assay [1] is 6.46; in assay [2], 9.28; in assay [3] it was 7.14; in assay [4], 9.52. Moreover, the ΔTm in assay [1] was 1.82; in assay [2], -0.281; in assay [3], 0.0203; in assay [4], 1.6. Further, the results for the inhibition in assay [5], in assay [6] and in assay [7] were 27.4%, 16.4% and 12.5%, respectively.

In the case of `COC[C@H](NC(=O)c1ccn(S(C)(=O)=O)c1)C(=O)Nc1nc(-c2cccc(-c3ccn(C)n3)c2)cs1`, the delta Tm Staurosporine positive control in assay [1] worked out at 6.46; in assay [2], 9.28; in assay [3], 7.14; in assay [4] it was 9.52. The ΔTm in assay [1] was 1.45; in assay [2], 0.564; in assay [3], 0.728; in assay [4], 1.38. Besides, the inhibition in assay [5] was 17.6%; in assay [6], 8.9%; in assay [7], 1.95%.
